In patent publication US10294202B2, “Pyrrolidinones as herbicides” (FMC Corporation, priority 2013, dated 2019):

Assays:
[1] = tested on: kochia; assay: Test E preemergence herbicide test; format: in vivo, Kochia scoparia; design: key: 0 = no effect, 100 = complete control
From the text: (§1) Seeds of plant species selected from corn (Zea mays), soybean (Glycine max), velvetleaf (Abutilon theophrasti), lambsquarters (Chenopodium album), wild poinsettia (Euphorbia heterophylla), pigweed, palmer (palmer pigweed, Amaranthus palmeri), waterhemp (common waterhemp, Amaranthus rudis), surinam grass (Brachiaria decumbens), crabgrass, large (large crabgrass, Digitaria sanguinalis), crabgrass, Brazil (Brazilian crabgrass, Digitaria horizontalis), panicum, fall (fall panicum, Panicum dichotomiflorum), foxtail, giant (giant foxtail, Setaria faberii), foxtail, green (green foxtail, Setaria viridis), goosegrass (Eleusine indica), johnsongrass (Sorghum halepense), ragweed (common ragweed, Ambrosia elatior), barnyardgrass (Echinochloa crus-galli), sandbur (southern sandbur, Cenchrus echinatus), arrowleaf […] rhombifolia), ryegrass, Italian (Italian ryegrass, Lolium multiflorum), dayflower, VA (Virginia dayflower, Commelina virginica), field bindweed (Convolvulus arvensis), morningglory (Ipomoea coccinea), nightshade (eastern black nightshade, Solanum ptycanthum), kochia (Kochia scoparia), nutsedge, yellow (yellow nutsedge, Cyperus esculentus), cocklebur (common cocklebur, Xanthium strumarium), smartweed (ladysthumb smartweed, Polygonum Persicaria) and beggarticks (hairy beggarticks, Bidens pilosa), were planted into a silt loam soil and treated preemergence with test chemicals formulated in a non-phytotoxic solvent mixture which included a surfactant. Treated plants and controls were maintained in a greenhouse for 21 days, after which time all species were compared to controls and visually evaluated. Plant response ratings, summarized in Table E, are based on a scale of 0 to 100 where 0 is no effect and 100 is complete control. A dash (-) response means no test result.

[2] = tested on: sprangletop, Brdd.; assay: Test F flood (paddy) test; format: in vivo, Leptochloa fascicularis; conditions: 21 d, scale 0-100
In short: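 Greenhouse paddy, 30/27 °C day/night, 16-h light; sterilized Tama silt loam, 2.6% OM. Plants at 2.0–2.5 leaves; flood 3 cm, compound added directly to water. Visual score at 21 d, 0 = no effect, 100 = complete control, relative to untreated.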

[3] = tested on: cupgrass, woolly; assay: Test C pre-/postemergence herbicide test; format: in vivo, Eriochloa villosa
In short: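 Pre-emergence: seeds sown in loam/sand blend and treated with compound in surfactant-containing solvent. Post-emergence: plants at 2–18 cm (1- to 4-leaf stage) in peat-based medium sprayed with the same formulation. Visual rating versus controls after 13–15 days in greenhouse, scale 0 (no effect) to 100 (complete control).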

[4] = tested on: arrowleaf sida; assay: Test E preemergence herbicide test; format: in vivo, Sida rhombifolia; design: key: 0 = no effect, 100 = complete control
From the text: as §1

## O=C1NCC(c2ccc(F)c(F)c2)C1C(=O)Nc1cccc(F)c1F (centres unmarked) [Compound 17, N-(2,3-difluorophenyl)-4-(3,4-difluorophenyl)-2-oxo-3-pyrrolidinecarboxamide]
[1]; 16 g ai/ha
  Plant response rating, Kochia: 0
[1]; 31 g ai/ha
  Plant response rating, Kochia: 0
[1]; 62 g ai/ha
  Plant response rating, Kochia: 0
[1]; 125 g ai/ha
  Plant response rating, Kochia: 25
[1]; 250 g ai/ha
  Plant response rating, Kochia: 50
[2]; 125 g ai/ha
  Plant response rating, Sprangletop, Brdd.: 85
[2]; 250 g ai/ha
  Plant response rating, Sprangletop, Brdd.: 85
[2]; 500 g ai/ha
  Plant response rating, Sprangletop, Brdd.: 85
[2]; 1000 g ai/ha
  Plant response rating, Sprangletop, Brdd.: 85
[2]; 2000 g ai/ha
  Plant response rating, Sprangletop, Brdd.: 100
[3]; Postemergence, 31 g ai/ha, scale 0 (no effect) to 100 (complete control)
  Plant response rating, Cupgrass, Woolly: 0
[3]; Postemergence, 62 g ai/ha, scale 0 to 100 (0 no effect, 100 complete control)
  Plant response rating, Cupgrass, Woolly: 0
[3]; Postemergence, 125 g ai/ha, scale 0 to 100 (0 no effect, 100 complete control)
  Plant response rating, Cupgrass, Woolly: 0
[3]; Postemergence, 250 g ai/ha, scale 0 to 100 (0 no effect, 100 complete control)
  Plant response rating, Cupgrass, Woolly: 0
[3]; Preemergence, 62 g ai/ha, scale 0 to 100
  Plant response rating, Cupgrass, Woolly: 85
[3]; Preemergence, 125 g ai/ha, scale 0 to 100 (0 no effect, 100 complete control)
  Plant response rating, Cupgrass, Woolly: 90
[3]; Preemergence, 31 g ai/ha, scale 0 to 100 (0 no effect, 100 complete control)
  Cupgrass, Woolly plant response rating: 80
[3]; Preemergence, 250 g ai/ha, scale 0 to 100 (0 no effect, 100 complete control)
  Plant response rating, Cupgrass, Woolly: 95
[4]; 16 g ai/ha
  Plant response rating, Arrowleaf Sida: 0
[4]; 31 g ai/ha
  Plant response rating, Arrowleaf Sida: 0
[4]; 62 g ai/ha
  Plant response rating, Arrowleaf Sida: 0
[4]; 125 g ai/ha
  Plant response rating, Arrowleaf Sida: 0
[4]; 250 g ai/ha
  Plant response rating, Arrowleaf Sida: 0
